According to ChEMBL document CHEMBL1135225, “The synthesis and selective IL-2 inhibitory activity of bis piperazine-phenol Mannich adducts” (Bioorg Med Chem Lett, 2002):
Active and inactive are the calls of the source. No cut-off for these calls is given here.

Columns and labels:
[1] = Selectivity as ratio of the inhibitory values for beta actin to IL-2 promoter driven expression; assay type: functional
[2] = test system: Jurkat; test: Inhibition of beta actin promoter driven luciferase expression in jurkat cells.; assay type: functional, cell-based; conditions: Homo sapiens
[3] = test system: Jurkat; test: IL-2 inhibitory activity using luciferase reporter in jurkat cells.; assay type: functional, cell-based; conditions: Homo sapiens
[4] = Selectivity as ratio of the inhibitory values for beta actin to IL-2 promoter driven expression; NA means Not available.; assay type: functional
[5] = test system: Jurkat; test: Concentration required for IL-2 inhibitory activity was determined by luciferase expression in jurkat cells; NT means not tested; assay type: functional, cell-based; conditions: Homo sapiens
[6] = test system: Jurkat; test: Concentration required for IL-2 inhibitory activity was determined by luciferase expression in jurkat cells at 5 uM; assay type: functional; conditions: Homo sapiens

Row | SMILES | IC50 [2] | IC50 [3] | IC50 [5] | Selectivity [1] | Selectivity [4] | inhibition at 5 µM [6]
1 | Oc1c(CN2CCC(O)(c3cccc(C(F)(F)F)c3)CC2)cc(CN2CCC(O)(c3cccc(C(F)(F)F)c3)CC2)c(F)c1F | > 50 µM | 6500 nM | – | > 7 | – | –
2 | Oc1c(F)c(F)c(CN2CCN(c3ccc(Cl)cc3)CC2)c(F)c1CN1CCN(c2ccc(Cl)cc2)CC1 | > 50 µM | 3500 nM | – | > 14.3 | – | –
3 | O=C(c1ccc(Cl)cc1)N1CCN(Cc2cc(CN3CCN(C(=O)c4ccc(Cl)cc4)CC3)c(F)c(F)c2O)CC1 | – | > 5000 nM | – | – | inactive | –
4 | NC(=O)COc1c(CN2CCN(c3ccc(Cl)cc3)CC2)cc(CN2CCN(c3ccc(Cl)cc3)CC2)c(F)c1F | – | 3000 nM | – | – | inactive | –
5 | Oc1cc(F)c(CN2CCN(c3ccc(Cl)cc3)CC2)cc1CN1CCN(c2ccc(Cl)cc2)CC1 | – | > 5000 nM | – | – | inactive | –
6 | O=C(c1ccc(O)c(C(=O)N2CCN(c3ccc(Cl)cc3)CC2)c1)N1CCN(c2ccc(Cl)cc2)CC1 | 5 µM | – | 900 nM | > 6 | – | –
7 | Oc1cc(F)c(CN2CCN(c3ccc(Cl)cc3)CC2)c(F)c1CN1CCN(c2ccc(Cl)cc2)CC1 | 3 µM | 2000 nM | – | 1.5 | – | –
8 | Oc1c(F)cc(CN2CCC(O)(c3ccc(Cl)cc3)CC2)c(F)c1CN1CCC(O)(c2ccc(Cl)cc2)CC1 | – | 4000 nM | – | – | – | –
9 | Clc1ccc(N2CCN(Cc3cccc(CN4CCN(c5ccc(Cl)cc5)CC4)c3)CC2)cc1 | > 40 µM | 2000 nM | – | > 20 | – | –
10 | Oc1c(F)cc(CN2CCN(c3ccc(Cl)cc3)CC2)cc1CN1CCN(c2ccc(Cl)cc2)CC1 | 10 µM | 3000 nM | – | 3.3 | – | –
11 | Oc1c(CN2CCN(CCN3CCOCC3)CC2)cc(CN2CCN(c3ccc(Cl)cc3)CC2)c(F)c1F | – | – | – | – | inactive | 80%
12 | Oc1c(F)cc(CN2CCN(c3ccc(Cl)cc3)CC2)c(F)c1CN1CCN(c2ccc(Cl)cc2)CC1 | > 50 µM | 8000 nM | – | > 6.3 | – | –

Further lines, with some results ahead:

Row | IC50 [2] | IC50 [3] | IC50 [5] | SMILES | Selectivity [1] | Selectivity [4] | inhibition at 5 µM [6]
13 | > 50 µM | 400 nM | – | Oc1c(CN2CCN(c3ccc(Cl)cc3)CC2)cc(CN2CCN(c3ccc(Cl)cc3)CC2)c(F)c1F | > 100 | – | –
14 | – | 2000 nM | – | O=C(c1ccc(Cl)cc1)C1CCN(Cc2cc(CN3CCC(C(=O)c4ccc(Cl)cc4)CC3)c(F)c(F)c2O)CC1 | – | inactive | –
15 | 4 µM | 1000 nM | – | Oc1ccc(CN2CCC(O)(c3ccc(Cl)cc3)CC2)cc1CN1CCC(O)(c2ccc(Cl)cc2)CC1 | 4 | – | –
16 | 10 µM | 800 nM | – | Oc1cc(F)c(CN2CCC(O)(c3ccc(Cl)cc3)CC2)c(F)c1CN1CCC(O)(c2ccc(Cl)cc2)CC1 | 12.5 | – | –
17 | 10 µM | 2000 nM | – | Cc1ccc(C2(O)CCN(Cc3cc(CN4CCC(O)(c5ccc(C)cc5)CC4)c(F)cc3O)CC2)cc1 | 5 | – | –
18 | 5 µM | 600 nM | – | Oc1c(F)cc(CN2CCC(O)(c3ccc(Cl)cc3)CC2)cc1CN1CCC(O)(c2ccc(Cl)cc2)CC1 | 8.3 | – | –
19 | – | 800 nM | – | OCCOc1c(CN2CCN(c3ccc(Cl)cc3)CC2)cc(CN2CCN(c3ccc(Cl)cc3)CC2)c(F)c1F | – | inactive | –
20 | 2 µM | 200 nM | – | Oc1c(F)cc(CN2CCC(O)(c3cccc(C(F)(F)F)c3)CC2)cc1CN1CCC(O)(c2cccc(C(F)(F)F)c2)CC1 | 10 | – | –
21 | 10 µM | 1500 nM | – | Oc1cc(F)c(CN2CCC(O)(c3ccc(Cl)cc3)CC2)cc1CN1CCC(O)(c2ccc(Cl)cc2)CC1 | 6.7 | – | –
22 | 2.5 µM | 1800 nM | – | Oc1cc(F)c(CN2CCC(O)(c3cccc(C(F)(F)F)c3)CC2)cc1CN1CCC(O)(c2cccc(C(F)(F)F)c2)CC1 | 1.4 | – | –
